This note sets out measurements from DBAASP.

Among the test systems are Escherichia coli UB1005; Escherichia coli 078; Streptococcus agalactiae.
Holding throughout (assay): ≥ marks a high value that may be exact or a test limit, other limits are often not marked, values filed in µg/mL are converted to µM
Test [1] deals with Escherichia coli ATCC 25922.
For test [2], the system named is Streptococcus thermophilus YM-C.
For test [3], the system named is Salmonella enterica subsp. enterica serovar Typhimurium C77-31.
For test [4], the system named is Salmonella enterica subsp. enterica serovar Typhimurium ATCC 14028.
Test [5] has as its system Salmonella enterica subsp. enterica serovar Pullorum ATCC 7913.
In test [6] the test system is Staphylococcus aureus ATCC 25923.
In test [7] the test system is Staphylococcus epidermidis ATCC 12228.
For test [8], the system named is Lacticaseibacillus rhamnosus 7469.
Test [9] concerns Pseudomonas aeruginosa ATCC 27853.
In test [10] the test system is Streptococcus agalactiae CICC 10465.
Test [11] deals with Staphylococcus aureus ATCC 29213.
The subject of test [12] is Pseudomonas aeruginosa ATCC 9027.
The test system of test [13] is Enterococcus faecalis PCM 2673.
Test [14] concerns Candida albicans ATCC 10231.
Test [15] has as its system Staphylococcus aureus USA 300 LAC.
Test [16] concerns Klebsiella pneumoniae ATCC 13883.
Test [17] concerns Staphylococcus epidermidis NBRC 12993.
The subject of test [18] is Aspergillus oryzae NBRC 100959.
Test [19] has as its system Candida viswanathii NBRC 10321.
Test [20] deals with Micrococcus luteus NBRC 3333.
Test [21] concerns Escherichia coli NBRC 3972.
In test [22] the test system is Acinetobacter baumannii CCARM 12035.
Test [23] relates to Pseudomonas aeruginosa CCARM 2095.
For test [24], the system named is Escherichia coli KCTC 1682.
Test [25] has as its system Enterococcus faecalis KCTC 2011.
In test [26] the test system is Salmonella typhimurium KCTC 1926.
Test [27] has as its system Bacillus subtilis KCTC 3068.
Test [28] relates to Escherichia coli CCARM 1229.
For test [29], the system named is Salmonella typhimurium CCARM 8009.
Test [30] has as its system Pseudomonas aeruginosa KCTC 1637.
For test [31], the system named is Staphylococcus aureus KCTC 1621.

The structures appear in SMILES notation. Converted amounts (≈) assume the structure as drawn.

The MIC is the lowest concentration that inhibits growth of the organism. `CC[C@H](C)[C@H](NC(=O)[C@H](CC(C)C)NC(=O)[C@@H](NC(=O)[C@@H](N)CC(=O)O)[C@@H](C)CC)C(=O)N[C@H](C(=O)N[C@H](C(=O)NCC(=O)NCC(=O)N[C@@H](CCCCN)C(=O)N[C@@H](CCC(N)=O)C(=O)N[C@@H](CCCN=C(N)N)C(=O)N[C@@H](CCCCN)C(=O)N[C@@H](CCCCN)C(=O)N[C@@H](CCCN=C(N)N)C(=O)N[C@@H](CCCN=C(N)N)C(=O)N[C@@H](CCCN=C(N)N)C(N)=O)C(C)C)[C@@H](C)CC` [DILIIVGGKQRKKRRR]: the MIC is 4 µM (≈ 7.74 µg/mL) in [1]; not below 64 µM in test [2]; 4 µM (≈ 7.74 µg/mL) in [3]; 4 µM (≈ 7.74 µg/mL) in test [4]; 8 µM (≈ 15.5 µg/mL) against Escherichia coli UB1005; 8 µM (≈ 15.5 µg/mL) in test [5]. For the same compound, the minimum inhibitory concentration (MIC) was 8 µM (≈ 15.5 µg/mL) in [6]; 4 µM (≈ 7.74 µg/mL) in test [7]; not below 32 µM in test [8]; 4 µM (≈ 7.74 µg/mL) in test [9]; 2 µM (≈ 3.87 µg/mL) in test [10]; 4 µM (≈ 7.74 µg/mL) in test [11]. Besides, the minimum inhibitory concentration (MIC) in the test on Escherichia coli 078 worked out at 4 µM (≈ 7.74 µg/mL); against Streptococcus agalactiae, 5.66 µM (≈ 10.9 µg/mL).

As to `CC[C@H](C)[C@H](NC(=O)[C@H](CC(C)C)NC(=O)[C@@H](NC(=O)[C@@H](N)CC(=O)O)[C@@H](C)CC)C(=O)N[C@H](C(=O)N[C@H](C(=O)NCC(=O)NCC(=O)N[C@@H](CCCN=C(N)N)C(=O)N[C@@H](CCCN=C(N)N)C(=O)N[C@@H](CCCN=C(N)N)C(=O)N[C@@H](CCCN=C(N)N)C(=O)N[C@@H](CCCN=C(N)N)C(=O)N[C@@H](CCCN=C(N)N)C(N)=O)C(C)C)[C@@H](C)CC` [DILIIVGGRRRRRR], the MIC is 16 µM (≈ 27.8 µg/mL) in [1]; not below 64 µM in test [2]; not below 64 µM in test [3]; more than 64 µM in test [4]; 16 µM (≈ 27.8 µg/mL) against Escherichia coli UB1005; 8 µM (≈ 13.9 µg/mL) in [5]. Also, the MIC in test [6] is more than 64 µM; in test [7], 2 µM (≈ 3.47 µg/mL); in test [8], not below 64 µM; in [9], more than 64 µM; in [10], 2 µM (≈ 3.47 µg/mL); in [11], 2 µM (≈ 3.47 µg/mL). The minimum inhibitory concentration (MIC) was not below 32 µM with Escherichia coli 078 and 5.66 µM (≈ 9.82 µg/mL) in the test on Streptococcus agalactiae.

Turning to `CC[C@H](C)[C@H](NC(=O)[C@H](CCCCN)NC(=O)[C@H](CCCCN)NC(=O)[C@@H](NC(=O)[C@@H](NC(=O)[C@H](CC(=O)O)NC(=O)[C@H](Cc1ccccc1)NC(=O)[C@H](CC(C)C)NC(=O)CN)[C@@H](C)CC)[C@@H](C)CC)C(=O)N[C@@H](C)C(=O)N[C@@H](C)C(=O)N[C@@H](CO)C(=O)N[C@@H](Cc1ccccc1)C(N)=O` [GLFDIIKKIAASF], the minimum inhibitory concentration (MIC) in test [1] was determined as 11.2 µM (≈ 16 µg/mL); in test [12], 45 µM (≈ 64 µg/mL); in test [13], 22.5 µM (≈ 32 µg/mL); in test [6] it was 22.5 µM (≈ 32 µg/mL); in test [14] it was 22.5 µM (≈ 32 µg/mL).

`CC[C@H](C)[C@H](NC(=O)[C@H](CCCCN)NC(=O)[C@H](CCCN=C(N)N)NC(=O)[C@@H](N)CC(C)C)C(=O)N[C@@H](Cc1c[nH]c2ccccc12)C(=O)N[C@@H](Cc1c[nH]c2ccccc12)C(=O)N[C@@H](Cc1c[nH]c2ccccc12)C(=O)N[C@@H](Cc1c[nH]c2ccccc12)C(N)=O` [LRKIWWWW]: the results for the MIC in test [1], in test [15] and in test [16] were 12.5 µM (≈ 15.9 µg/mL), 4.38 µM (≈ 5.58 µg/mL) and 8.8 µM (≈ 11.2 µg/mL), respectively.

For `CC[C@H](C)[C@H](NC(=O)[C@H](CCCCN)NC(=O)[C@@H](N)CCCN=C(N)N)C(=O)N[C@@H](CCCCN)C(=O)N[C@@H](CCCN=C(N)N)C(=O)N[C@@H](Cc1ccc(O)cc1)C(=O)N[C@@H](CC(C)C)C(=O)N[C@@H](CCCN=C(N)N)C(=O)N[C@@H](CCCN=C(N)N)C(=O)N[C@@H](CCSC)C(=O)N[C@H](C(=O)N[C@H](C(=O)N[C@H](C(=O)N[C@@H](Cc1c[nH]c2ccccc12)C(=O)O)[C@@H](C)CC)[C@@H](C)CC)[C@@H](C)CC` [RKIKRYLRRMIIIW], the minimum inhibitory concentration (MIC) was 12.9 µM (≈ 25 µg/mL) in test [17]; 12.9 µM (≈ 25 µg/mL) in [18]; 25.7 µM (≈ 50 µg/mL) in test [19]; 25.7 µM (≈ 50 µg/mL) in [20]; not below 411 µM in test [21].

As for `CC[C@H](C)[C@H](NC(=O)CNC(=O)[C@H](CC(=O)O)NC(=O)[C@H](CCCN=C(N)N)NC(=O)[C@@H](NC(=O)[C@H](CC(N)=O)NC(=O)[C@H](CCCN=C(N)N)NC(=O)CNC(=O)[C@@H](NC(=O)[C@H](CCCCN)NC(=O)[C@H](CCC(=O)O)NC(=O)[C@@H](NC(=O)[C@H](CCCCN)NC(=O)[C@H](CCCCN)NC(=O)[C@H](C)NC(=O)[C@@H](NC(=O)[C@H](CCCCN)NC(=O)[C@H](Cc1c[nH]c2ccccc12)NC(=O)[C@@H](N)CCCN=C(N)N)[C@@H](C)CC)[C@@H](C)CC)C(C)C)C(C)C)C(=O)N[C@H](C(=O)N[C@@H](CCCCN)C(=O)N[C@@H](C)C(N)=O)[C@@H](C)CC` [RWKIAKKIEKVGRNVRDGIIKA], the minimum inhibitory concentration (MIC) was 8 µM (≈ 20.6 µg/mL) in test [22]; 8 µM (≈ 20.6 µg/mL) in [23]; 1 µM (≈ 2.58 µg/mL) in test [24]; not below 128 µM in test [25]; 2 µM (≈ 5.16 µg/mL) in test [26]; 16 µM (≈ 41.3 µg/mL) in test [27]. Besides, the MIC in [28] worked out at 2 µM (≈ 5.16 µg/mL); in test [29], 4 µM (≈ 10.3 µg/mL); in test [30] it was 2 µM (≈ 5.16 µg/mL); in test [31], 16 µM (≈ 41.3 µg/mL).

For the compound `CC[C@H](C)[C@H](NC(=O)CNC(=O)[C@H](CC(=O)O)NC(=O)[C@H](CCCN=C(N)N)NC(=O)[C@@H](NC(=O)[C@H](CC(N)=O)NC(=O)[C@H](CCCN=C(N)N)NC(=O)CNC(=O)[C@@H](NC(=O)[C@H](CCCCN)NC(=O)[C@H](CCC(=O)O)NC(=O)[C@@H](NC(=O)[C@H](CCCCN)NC(=O)[C@H](CCCCN)NC(=O)[C@H](Cc1ccccc1)NC(=O)[C@@H](NC(=O)[C@H](CCCCN)NC(=O)[C@H](Cc1c[nH]c2ccccc12)NC(=O)[C@@H](N)CCCN=C(N)N)[C@@H](C)CC)[C@@H](C)CC)C(C)C)C(C)C)C(=O)N[C@H](C(=O)N[C@@H](CCCCN)C(=O)N[C@@H](C)C(N)=O)[C@@H](C)CC` [RWKIFKKIEKVGRNVRDGIIKA], the MIC in test [22] is 2 µM (≈ 5.31 µg/mL); in [23], 2 µM (≈ 5.31 µg/mL); in test [24], 1 µM (≈ 2.65 µg/mL); in [25], not below 64 µM; in test [26], 2 µM (≈ 5.31 µg/mL); in test [27] it was 8 µM (≈ 21.2 µg/mL). For the same compound, the minimal inhibitory concentration (MIC) in test [28] worked out at 4 µM (≈ 10.6 µg/mL); in test [29], 2 µM (≈ 5.31 µg/mL); in test [30], 2 µM (≈ 5.31 µg/mL); in [31], 8 µM (≈ 21.2 µg/mL).

Take `CC[C@H](C)[C@H](NC(=O)[C@H](CCCCN)NC(=O)[C@H](CCCN=C(N)N)NC(=O)[C@H](CC(C)C)NC(=O)[C@@H](N)Cc1c[nH]c2ccccc12)C(=O)N[C@@H](Cc1c[nH]c2ccccc12)C(=O)N[C@@H](Cc1c[nH]c2ccccc12)C(=O)N[C@@H](Cc1c[nH]c2ccccc12)C(N)=O` [WLRKIWWW]: the MIC stood at 17.7 µM (≈ 22.5 µg/mL) in [1], 4.38 µM (≈ 5.58 µg/mL) in test [15] and 25 µM (≈ 31.8 µg/mL) in test [16].
